From ChEMBL document CHEMBL3098096, “Design, synthesis and antibacterial activities of 5-(pyrazin-2-yl)-4H-1,2,4-triazole-3-thiol derivatives containing Schiff base formation as FabH inhibitory” (Bioorg Med Chem Lett, 2014)
≈ marks a conversion by molar mass, not a printed value.

Columns and labels:
NIH3T3 = experiment: Cytotoxicity against mouse NIH/3T3 cells after 24 hrs by MTT assay; format: cell-based; settings: NIH3T3, 24 h
[1] = Toxicity in human erythrocytes assessed as hemolytic activity by spectrophotometric analysis; format: cell-based; settings: erythrocyte
[2] = molecular target: T1, 3-oxoacyl-[acyl-carrier-protein] synthase 3 (Escherichia coli, UniProt C3TDZ2); experiment: Inhibition of Escherichia coli FabH overexpressed in Escherichia coli DH10B cells assessed as incorporation of [3H] in the product after 25 mins by liquid scintillation counting analysis
T1 sequence (C3TDZ2 whole entry): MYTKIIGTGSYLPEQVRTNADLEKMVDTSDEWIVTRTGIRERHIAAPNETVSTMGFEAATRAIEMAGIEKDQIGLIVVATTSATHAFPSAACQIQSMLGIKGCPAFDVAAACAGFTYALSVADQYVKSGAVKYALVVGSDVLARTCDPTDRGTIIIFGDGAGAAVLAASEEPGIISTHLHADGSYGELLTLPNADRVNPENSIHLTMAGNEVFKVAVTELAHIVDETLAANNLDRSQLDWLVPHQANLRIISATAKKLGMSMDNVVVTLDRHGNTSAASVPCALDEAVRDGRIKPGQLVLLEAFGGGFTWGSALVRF

[3] = tested on: Bacillus amyloliquefaciens; experiment: Antimicrobial activity against Bacillus amyloliquefaciens 23842 assessed as […] growth inhibition after 24 hrs by two-fold serial broth dilution method; format: functional; settings: Bacillus amyloliquefaciens, 23842, 24 h
Bacillus subtilis = experiment: Antimicrobial activity against Bacillus subtilis ATCC 530 assessed as […] growth inhibition after 24 hrs by two-fold serial broth dilution method; format: functional; settings: ATCC 530, 24 h
Staphylococcus aureus = experiment: Antimicrobial activity against Staphylococcus aureus ATCC 25923 assessed as […] growth inhibition after 24 hrs by two-fold serial broth dilution method; format: functional; settings: ATCC 25923, 24 h
Pseudomonas aeruginosa = experiment: Antimicrobial activity against Pseudomonas aeruginosa ATCC 27853 assessed as […] growth inhibition after 24 hrs by two-fold serial broth dilution method; format: functional; settings: ATCC 27853, 24 h
Escherichia coli = experiment: Antimicrobial activity against Escherichia coli ATCC 25922 assessed as […] growth inhibition after 24 hrs by two-fold serial broth dilution method; format: functional; settings: ATCC 25922, 24 h

Compound	IC50 [2]	MIC [3]	MIC (Bacillus subtilis)	MIC (Staphylococcus aureus)	MIC (Pseudomonas aeruginosa)	MIC (Escherichia coli)	IC50 (NIH3T3)	LC30 [1]
O=[N+]([O-])c1ccc(/C=N/n2c(S)nnc2-c2cnccn2)cc1		50 µg/mL (≈ 153 µM)	25 µg/mL (≈ 76.4 µM)	> 50 µg/mL	25 µg/mL (≈ 76.4 µM)	25 µg/mL (≈ 76.4 µM)		
Oc1cccc(/C=N/n2c(S)nnc2-c2cnccn2)c1	48.3 µM	50 µg/mL (≈ 168 µM)	50 µg/mL (≈ 168 µM)	> 50 µg/mL	25 µg/mL (≈ 83.8 µM)	25 µg/mL (≈ 83.8 µM)	151 µM	> 10000 µg/mL
Sc1nnc(-c2cnccn2)n1/N=C/C=C/c1ccccc1		50 µg/mL (≈ 162 µM)	25 µg/mL (≈ 81.1 µM)	50 µg/mL (≈ 162 µM)	25 µg/mL (≈ 81.1 µM)	12.5 µg/mL (≈ 40.5 µM)		
Sc1nnc(-c2cnccn2)n1/N=C/c1ccccc1		50 µg/mL (≈ 177 µM)	25 µg/mL (≈ 88.5 µM)	50 µg/mL (≈ 177 µM)	25 µg/mL (≈ 88.5 µM)	25 µg/mL (≈ 88.5 µM)		
Fc1ccc(/C=N/n2c(S)nnc2-c2cnccn2)cc1		50 µg/mL (≈ 166 µM)	50 µg/mL (≈ 166 µM)	50 µg/mL (≈ 166 µM)	> 50 µg/mL	25 µg/mL (≈ 83.2 µM)		
Sc1nnc(-c2cnccn2)n1/N=C/c1ccc(Cl)cc1	> 100 µM	50 µg/mL (≈ 158 µM)	> 50 µg/mL	50 µg/mL (≈ 158 µM)	> 50 µg/mL	50 µg/mL (≈ 158 µM)	218 µM	> 10000 µg/mL
Fc1ccccc1/C=N/n1c(S)nnc1-c1cnccn1		50 µg/mL (≈ 166 µM)	50 µg/mL (≈ 166 µM)	50 µg/mL (≈ 166 µM)	50 µg/mL (≈ 166 µM)	25 µg/mL (≈ 83.2 µM)		
Fc1cccc(/C=N/n2c(S)nnc2-c2cnccn2)c1		50 µg/mL (≈ 166 µM)	> 50 µg/mL	50 µg/mL (≈ 166 µM)	> 50 µg/mL	25 µg/mL (≈ 83.2 µM)		
Sc1nnc(-c2cnccn2)n1/N=C/c1ccc(Cl)cc1Cl	> 100 µM	> 50 µg/mL	> 50 µg/mL	50 µg/mL (≈ 142 µM)	> 50 µg/mL	50 µg/mL (≈ 142 µM)	206 µM	> 10000 µg/mL

Further molecules by falling MIC [3], results first:

IC50 [2]	MIC [3]	MIC (Bacillus subtilis)	MIC (Staphylococcus aureus)	MIC (Pseudomonas aeruginosa)	MIC (Escherichia coli)	Compound	IC50 (NIH3T3)	LC30 [1]
	50 µg/mL (≈ 160 µM)	50 µg/mL (≈ 160 µM)	> 50 µg/mL	50 µg/mL (≈ 160 µM)	25 µg/mL (≈ 80 µM)	COc1cccc(/C=N/n2c(S)nnc2-c2cnccn2)c1		
45.5 µM	25 µg/mL (≈ 73 µM)	25 µg/mL (≈ 73 µM)	12.5 µg/mL (≈ 36.5 µM)	50 µg/mL (≈ 146 µM)	25 µg/mL (≈ 73 µM)	COc1ccc(/C=N/n2c(S)nnc2-c2cnccn2)cc1OC	163 µM	> 10000 µg/mL
15.1 µM	25 µg/mL (≈ 67.1 µM)	6.25 µg/mL (≈ 16.8 µM)	12.5 µg/mL (≈ 33.6 µM)	12.5 µg/mL (≈ 33.6 µM)	6.25 µg/mL (≈ 16.8 µM)	COc1cc(/C=N/n2c(S)nnc2-c2cnccn2)cc(OC)c1OC	169 µM	> 10000 µg/mL
22.9 µM	25 µg/mL (≈ 80 µM)	25 µg/mL (≈ 80 µM)	25 µg/mL (≈ 80 µM)	25 µg/mL (≈ 80 µM)	12.5 µg/mL (≈ 40 µM)	COc1ccccc1/C=N/n1c(S)nnc1-c1cnccn1	173 µM	> 10000 µg/mL
29.3 µM	25 µg/mL (≈ 83.8 µM)	25 µg/mL (≈ 83.8 µM)	50 µg/mL (≈ 168 µM)	25 µg/mL (≈ 83.8 µM)	12.5 µg/mL (≈ 41.9 µM)	Oc1ccc(/C=N/n2c(S)nnc2-c2cnccn2)cc1	175 µM	> 10000 µg/mL
24.6 µM	25 µg/mL (≈ 79.5 µM)	25 µg/mL (≈ 79.5 µM)	25 µg/mL (≈ 79.5 µM)	12.5 µg/mL (≈ 39.8 µM)	12.5 µg/mL (≈ 39.8 µM)	Oc1ccc(/C=N/n2c(S)nnc2-c2cnccn2)cc1O	148 µM	> 10000 µg/mL
	25 µg/mL (≈ 69.2 µM)	25 µg/mL (≈ 69.2 µM)	50 µg/mL (≈ 138 µM)	50 µg/mL (≈ 138 µM)	50 µg/mL (≈ 138 µM)	Sc1nnc(-c2cnccn2)n1/N=C/c1ccc(Br)cc1		
27.1 µM	25 µg/mL (≈ 84.4 µM)	25 µg/mL (≈ 84.4 µM)	25 µg/mL (≈ 84.4 µM)	50 µg/mL (≈ 169 µM)	12.5 µg/mL (≈ 42.2 µM)	Cc1ccc(/C=N/n2c(S)nnc2-c2cnccn2)cc1	156 µM	> 10000 µg/mL
	25 µg/mL (≈ 80 µM)	50 µg/mL (≈ 160 µM)	50 µg/mL (≈ 160 µM)	25 µg/mL (≈ 80 µM)	12.5 µg/mL (≈ 40 µM)	COc1ccc(/C=N/n2c(S)nnc2-c2cnccn2)cc1		
12.8 µM	6.25 µg/mL (≈ 16.8 µM)	3.13 µg/mL (≈ 8.4 µM)	25 µg/mL (≈ 67.1 µM)	12.5 µg/mL (≈ 33.6 µM)	6.25 µg/mL (≈ 16.8 µM)	COc1cc(OC)c(OC)cc1/C=N/n1c(S)nnc1-c1cnccn1	142 µM	> 10000 µg/mL
6.3 µM	1.56 µg/mL (≈ 3.23 µM)	3.13 µg/mL (≈ 6.47 µM)	1.56 µg/mL (≈ 3.23 µM)	1.56 µg/mL (≈ 3.23 µM)	3.13 µg/mL (≈ 6.47 µM)	NC[C@H]1O[C@H](O[C@H]2[C@H](O)[C@@H](O[C@H]3O[C@H](CO)[C@@H](O)[C@H](N)[C@H]3O)[C@H](N)C[C@@H]2N)[C@H](N)[C@@H](O)[C@@H]1O [BEKANAMYCIN]	140 µM	> 10000 µg/mL
5.2 µM	0.78 µg/mL (≈ 2.61 µM)	0.78 µg/mL (≈ 2.61 µM)	1.56 µg/mL (≈ 5.23 µM)	1.56 µg/mL (≈ 5.23 µM)	0.39 µg/mL (≈ 1.31 µM)	Oc1ccccc1/C=N/n1c(S)nnc1-c1cnccn1	131 µM	> 10000 µg/mL
